In patent US9420813B2, “Sweetener” (AJINOMOTO CO., INC., priority 2007, dated 2016):
*1 amine or outer side, *2 acyl side, *3 side chain or, on linkers, in order; H or OH if unused. Where no end group is shown, it is not given here. [ ]: non-standard residue; d: D form. γGlu = O=C(O)[C@H](CCC(=O)[*:2])N[*:1]; Abu = CC[C@H](N)C(=O)O

Test: Quantitative sensory evaluation, improvement of body taste and bitterness of single high-intensity sweeteners (Examples 1 and 3)
Set-up: species or system human
Conditions: for Bitterness: control 0, <0 improved; for Bitterness / Body taste: n=12; for Body taste: control 0, >0 improved; for improvement of the body taste (conclusion in words): APM, sucralose or Ace-K solutions, Tables 6 to 8 and 13 to 15
Experimental: The quantitative sensory evaluation test was performed as follows. As for standard solutions of each sweetener, the following compounds were used. The following standard solutions were adjusted so that they each have almost the same degree of sweetness.
iii) Sucralose (0.008 g/dl)
To distilled water containing each of the above sweeteners, γ-Glu-Cys-Gly (glutathione), γ-Glu-Val-Gly, or γ-Glu-Abu-Gly was added and mixed at concentrations of 0.0001 to 1 g/dl, and then the degree of the improvement of the body taste and the improvement of the bitterness on the sweet taste was measured.
When one of the mixtures is more acidic than the standard control solution, the pH of the sample solution was adjusted with NaOH to achieve a range of pH±0.2 with respect to the pH of the standard solution before use.
(§1) The sensory evaluation for the improvement of the body taste was performed with n=12 on the basis of the following criteria: a control (obtained by adding distilled water only and without adding glutathione and/or the peptide) was defined as 0, and by using the control as a standard, the following were defined: weak: −2 points; slightly weak: −1 point; slightly strong: 1 point, and strong: 2 points. A higher score than 0 means that the sample improved the body taste.
as §1, with “Alternatively, the” for “The”, “bitterness” for “body taste”, “lower” for “higher”, “improves” for “improved”, “bitterness.” for “body taste.”
The quantitative sensory evaluation test was performed as follows. As for standard solutions of each sweetener, the following compounds were used. The following standard solutions have been adjusted so as they each have almost the same degree of sweetness.
To distilled water containing each sweeteners, γ-Glu-Val-Gly or cinacalcet was mixed as a sample at concentrations of 0.0001 to 1 g/dl, respectively, and then each degree of the improvement of the body taste and the improvement of the bitterness on the sweet taste was measured.
When a mixture is more acidic than the standard control solution, the pH of the mixture was adjusted with NaOH to achieve a range of pH±0.2 with respect to the pH of the standard solution before use.
as §1, with “a sample)” for “glutathione and/or the peptide)”, “improves” for “improved”
Alternatively, the sensory evaluation for the improvement of the bitterness was performed with n=12 on the basis of the following criteria: a control (obtained with adding distilled water only and without adding a sample) was defined as 0, and by using the control as a standard, the following were defined: weak: −2 points; slightly weak: −1 point; slightly strong: 1 point, and strong: 2 points. A lower score than 0 means that the sample improves the bitterness.

[1] = APM 0.025 g/dl, sample 0.0001 g/dl
[2] = APM 0.025 g/dl, sample 0.001 g/dl
[3] = Ace-K 0.025 g/dl, sample 0.0001 g/dl
[4] = Ace-K 0.025 g/dl, sample 0.001 g/dl
[5] = sucralose 0.008 g/dl, sample 0.0001 g/dl
[6] = sucralose 0.008 g/dl, sample 0.001 g/dl
[7] = APM 0.025 g/dl, sample 0.05 g/dl
[8] = Ace-K 0.025 g/dl, sample 0.05 g/dl
[9] = sucralose 0.008 g/dl, sample 0.05 g/dl
[10] = APM 0.025 g/dl, sample 0.001 g/dl (γ-Glu-Abu-Gly of Table 6)
[11] = Ace-K 0.025 g/dl, sample 0.01 g/dl
[12] = sucralose 0.008 g/dl, sample 0.01 g/dl

Molecule	Bitterness [1]	Body taste [1]	Bitterness [2]	Body taste [2]	improvement of the body taste (conclusion in words)	Taste profile [3]	Bitterness [3]	Body taste [3]	Taste profile [4]	Bitterness [4]	Body taste [4]	Bitterness [5]	Body taste [5]	Bitterness [6]	Body taste [6]	further results
[γGlu]-Val-Gly	−0.2 points	0.5 points	−0.5 points	1.3 points	improve the body taste at almost the same concentration	Sweet taste with growth is enhanced in middle	−0.6 points	0.7 points	Sweet taste with growth is enhanced in middle	−1.2 points	1.2 points	−0.1 points	0.7 points	−0.2 points	1.3 points	
C[C@@H](NCCCc1cccc(C(F)(F)F)c1)c1cccc2ccccc12 [Cinacalcet, (R)—N-(3-(3-(trifluoromethyl)phenyl)propyl)-1-(1-naphthyl)ethylamine, reference compound]	−0.2 points	0.8 points	−0.5 points	1.5 points	improve the body taste at almost the same concentration	Sweet taste with growth is enhanced in middle	−0.2 points	0.6 points	Sweet taste with growth is enhanced in middle	−0.3 points	1.1 points	−0.1 points	0.5 points	−0.2 points	1.1 points	
N[C@@H](CCC(=O)N[C@@H](CS)C(=O)NCC(=O)O)C(=O)O [γ-Glu-Cys-Gly, reference compound]																Taste profile [7]: Sweet taste is wholly enhanced.; Bitterness [7]: −0.5 points; Body taste [7]: 1.0 points; Bitterness [8]: −0.6 points; Body taste [8]: 1.0 points; Taste profile [9]: Sweet taste with growth is enhanced in middle; Bitterness [9]: 0 points; Body taste [9]: 1.0 points
[γGlu]-[Abu]-Gly			−0.1 points	0.7 points						−0.6 points	0.5 points			−0.1 points	0.5 points	Taste profile [2]: Sweet taste is enhanced in initial taste; Taste profile [10]: Sweet taste is enhanced in initial taste; Bitterness [10]: −0.1 points; Body taste [10]: 1.5 points; Bitterness [11]: −1.2 points; Body taste [11]: 1.1 points; Bitterness [12]: −0.1 points; Body taste [12]: 1.0 points
